Columns and labels:
[1] = blood parameters in high-fat diet-fed mice; type: in vivo; details: HF diet-fed C57BL/6J mice; for blood glucose / circulating TG (triglyceride) levels: week 12; for circulating TG (triglyceride) levels: vs HF group; for Blood profiles: FFA (plasma free fatty acid) / Blood profiles: Insulin / Blood profiles: Leptin / Blood profiles: TC (total cholesterol): mean ± SE, n=9
Protocol: For part 2, C57BL/6J mice (4 weeks old) were obtained from the National Laboratory Animal Breeding and Research Center. The mice were divided randomly into two groups after 7 days acclimation. […] The compositions of the experimental diets are given in previous studies. After 8 weeks, the high-fat treated mice were randomly subdivided into four groups (n=9) including PTA1 (0.06 g/kg/day), PTA2 (0.12 g/kg/day) or rosiglitazone (Rosi; 1% methylcellulose, 10 mg/kg body weight) (GlaxoSmithKline) or vehicle and treated by oral gavage one time per day from the 9th to 12th weeks, while the mice were still on the high-fat diet, whereas the CON and high-fat control (HF) mice were treated with vehicle only. At the end, food was withheld from the animals (from 10 p.m. to 10 a.m.). The next day, the mice were sacrificed for blood and tissue collection and analysis. Livers, skeletal muscles, and white adipose tissues (WATs) (including epididymal, mesenteric, and retroperitoneal WAT) were weighed and excised, followed by immediate freezing, and kept at −80° C. for target gene analysis. Heparin (30 units/mL) (Sigma) was added to blood samples. Plasma samples were collected within 30 min by centrifugation at 1600 g for 15 min at 4° C. Plasma was obtained for insulin and leptin assay.
Blood samples (0.8 mL) were collected from the retro-orbital sinus of fasted mice, and the glucose level was analyzed by the glucose oxidase method (model 1500; Sidekick Glucose Analyzer; YSI Inc., Yellow Springs, Ohio, USA). Plasma triglycerides (TG), total cholesterol (TC), and free fatty acids (FFA) were measured using commercial assay kits according to the manufacturer's directions (Triglycerides-E test, Cholesterol-E test, and FFA-C test, Wako Pure Chemical, Osaka, Japan). The levels of insulin and leptin in blood were analyzed by ELISA using a commercial assay kit according to the manufacturer's directions (mouse insulin ELISA kit, Sibayagi, Gunma, Japan; and mouse leptin ELISA kit, Morinaga, Yokohama, Japan).

[2] = tested on: epididymal WAT and liver tissue; experiment: histopathology of epididymal WAT and liver tissue; type: in vivo; details: HF diet-fed C57BL/6J mice; for hepatocellular ballooning mean score: grade 0 none, 1 a few cells, 2 many cells
Text: For part 2, C57BL/6J mice (4 weeks old) were obtained from the National Laboratory Animal Breeding and Research Center. The mice were divided randomly into two groups after 7 days acclimation. The control (CON) group (n=9) was fed a low-fat diet (diet 12450B, Research Diets, Inc., New Brunswick, N.J., USA), whereas the experimental group was fed a 45% high-fat diet (diet 12451, Research Diets, Inc.) for 12 weeks. The compositions of the experimental diets are given in previous studies. After 8 weeks, the high-fat treated mice were randomly subdivided into four groups (n=9) including PTA1 (0.06 g/kg/day), PTA2 (0.12 g/kg/day) or rosiglitazone (Rosi; 1% methylcellulose, 10 mg/kg body weight) (GlaxoSmithKline) or vehicle and treated by oral gavage one time per day from the 9th to 12th weeks, while the mice were still on the high-fat diet, whereas the CON and high-fat control (HF) mice were treated with vehicle only. At the end, food was withheld from the animals (from 10 p.m. to 10 a.m.). The next day, the mice were sacrificed for blood and tissue collection and analysis. Livers, skeletal muscles, and white adipose tissues (WATs) (including epididymal, mesenteric, and retroperitoneal WAT) were weighed and excised, followed by immediate freezing, and kept at −80° C. for target gene analysis. Heparin (30 units/mL) (Sigma) was added to blood samples. Plasma samples were collected within 30 min by centrifugation at 1600 g for 15 min at 4° C. Plasma was obtained for insulin and leptin assay.
Small pieces of epididymal WAT and liver tissue were fixed with formalin (200 g/kg) neutral buffered solution and embedded in paraffin. Sections (8 μm) were cut and stained with hematoxylin and eosin. For microscopic examination, a microscope (Leica, DM2500) was used, and the images were taken using a Leica Digital camera (DFC-425-C).

[3] = tested on: G6 Pase; experiment: semiquantitative RT-PCR, liver G6 Pase mRNA; type: in vivo, C57BL/6J mice; details: HF diet-fed mice, normalized to GAPDH, vs HF group
Text: (§1) For part 2, C57BL/6J mice (4 weeks old) were obtained from the National Laboratory Animal Breeding and Research Center. The mice were divided randomly into two groups after 7 days acclimation. The control (CON) group (n=9) was fed a low-fat diet (diet 12450B, Research Diets, Inc., New Brunswick, N.J., USA), whereas the experimental group was fed a 45% high-fat diet (diet 12451, Research Diets, Inc.) for 12 weeks. The compositions of the experimental diets are given in previous studies. […]
(§2) Total RNA from the liver tissue was isolated with a Trizol reagent (Molecular Research Center, Inc., Cincinnati, Ohio, USA) according to the manufacturer's directions. The integrity of the extracted total RNA was examined by 2% agarose gel electrophoresis, and the RNA concentration was determined by ultraviolet (UV) light absorbency at 260 and 280 nm (spectrophotometer U-2800A, Hitachi). […] The relative density of the band was evaluated using AlphaDigiDoc 1201 software (Alpha Innotech Co., San Leandro, Calif., USA). All of the measured PCR products were normalized to the amount of cDNA of GAPDH in each sample. […]

[4] = tested on: 11β-HSD1; experiment: semiquantitative RT-PCR, liver 11β-HSD1 mRNA; type: in vivo, C57BL/6J mice; details: HF diet-fed mice, normalized to GAPDH, vs HF group
Text: as §1, §2

[5] = tested on: FAS; experiment: semiquantitative RT-PCR, liver FAS mRNA; type: in vivo, C57BL/6J mice; details: HF diet-fed mice, normalized to GAPDH, vs HF group
Text: as §1, §2

[6] = PTA1 0.06 g/kg/day oral gavage 4 weeks
[7] = PTA2 0.12 g/kg/day oral gavage 4 weeks

C[C@@H]1CC[C@]2(C(=O)O)CC[C@]3(C)C(=CC[C@@H]4[C@@]5(C)C[C@@H](O)[C@H](O)C(C)(C)[C@@H]5CC[C@]43C)[C@@H]2[C@]1(C)O [PTA, tormentic acid]
blood glucose [1, 6]: 96.3 mg/dL | circulating TG (triglyceride) levels [1, 6]: decreased | Blood profiles: FFA (plasma free fatty acid) [1, 6]: 2.15 ± 0.35 mequiv/L | Blood profiles: Insulin [1, 6]: 101.7 ± 15.2 μU/mL | Blood profiles: Leptin [1, 6]: 2.35 ± 0.092 ng/mL | Blood profiles: TC (total cholesterol) [1, 6]: 167.0 ± 6.1 mg/dL | blood glucose [1, 7]: 94.8 mg/dL | circulating TG (triglyceride) levels [1, 7]: decreased | Blood profiles: FFA (plasma free fatty acid) [1, 7]: 1.88 ± 0.29 mequiv/L | Blood profiles: Insulin [1, 7]: 73.9 ± 11.8 μU/mL | Blood profiles: Leptin [1, 7]: 1.78 ± 0.094 ng/mL | Blood profiles: TC (total cholesterol) [1, 7]: 153.7 ± 6.9 mg/dL | average area of adipocytes (epididymal WAT) [2, 6]: 2380.9±108.6 μm2 | hepatocellular ballooning mean score [2, 6]: 1.0±0.2 | average area of adipocytes (epididymal WAT) [2, 7]: 2243.2±100.9 μm^2 | hepatocellular ballooning mean score [2, 7]: 0.7±0.2 | mRNA level of G6 Pase in liver ([3]; PTA1 0.06 g/kg/day 4 weeks): significantly decrease | mRNA level of G6 Pase in liver ([3]; PTA2 0.12 g/kg/day 4 weeks): significantly decrease | mRNA level of 11β-HSD1 in liver ([4]; PTA1 0.06 g/kg/day 4 weeks): significantly decrease | mRNA level of 11β-HSD1 in liver ([4]; PTA2 0.12 g/kg/day 4 weeks): significantly decrease | mRNA level of FAS in liver ([5]; PTA1 0.06 g/kg/day 4 weeks): significantly decrease | mRNA level of FAS in liver ([5]; PTA2 0.12 g/kg/day 4 weeks): significantly decrease

Source: patent US20170105953A1, “METHOD FOR SUPPRESSING DIABETES AND/OR HEPATIC LIPIDS USING TORMENTIC ACID” (priority 2015, published 2017)
